COP(=O)(NC(C)=O)SC (stereo unspecified)
Conditions	solubility (mole fraction)
in acetone, 299.45 K	0.068
in acetone, 302.6 K	0.0811
in acetone, 305.2 K	0.0923
in acetone, 306.4 K	0.0986
in acetone, 309.8 K	0.119
in acetone, 311.4 K	0.131
in acetone, 313.75 K	0.149
in acetone, 315.8 K	0.167
in dichloromethane, 292.9 K	0.176
in dichloromethane, 295.2 K	0.19
in dichloromethane, 297.3 K	0.203
in dichloromethane, 298.45 K	0.21
in dichloromethane, 299.6 K	0.217
in dichloromethane, 301.05 K	0.226
in dichloromethane, 302.3 K	0.233
in dichloromethane, 303.25 K	0.241
in ethyl acetate, 307.9 K	0.035
in ethyl acetate, 310.75 K	0.0408
in ethyl acetate, 314.2 K	0.049
in ethyl acetate, 318.4 K	0.0648
in ethyl acetate, 321.55 K	0.0779
in ethyl acetate, 324.95 K	0.0965
in ethyl acetate, 327.6 K	0.118
in isopropanol, 299.3 K	0.0606
in isopropanol, 303.95 K	0.0773
in isopropanol, 306.7 K	0.0925
in isopropanol, 310.75 K	0.118
in isopropanol, 313.35 K	0.137
in isopropanol, 316.45 K	0.163
in isopropanol, 319.45 K	0.193
in isopropanol, 322 K	0.224

Source: BigSolDB 2.1
